One experiment has as its system ATP synthesis. The settings on record: with de novo D-ribose; 72 to 96 hours ordinarily required from glucose; cited from earlier work.
Another experiment concerns clean wounds. In words: rate of healing of clean wounds. The class given is in vivo. The settings on record: ribose by itself. The source says:
(§1) Only with respect to the skin has ribose been used for healing purposes, and these are for wound healing in which ribose in combination with other nutrients improved the rate of healing. […] It then became reasonable to assume that this combination should be extended to internal wounds.

For a further experiment, the system named is infected wounds. Kind of experiment: rate of healing of infected wounds, ribose combined with antibiotics. The class given is in vivo.
Source text: as §1

Another experiment deals with appetite. Kind of experiment: appetite after D-ribose aqueous solution given during a meal. The class given is in vivo, people. An excerpt: This brings up the paradoxical role that ribose plays with respect to appetite. Ribose is offered to consumers primarily because it is rate-limiting in the production of phosphoribosylpyrophosphate (PRPP), a precursor for salvage and for de novo adenine nucloeotide synthetic pathways, which maintain, AMP and ADP (adenosine diphosphate) for re-synthesis of ATP. The high-energy bonds of ATP are the direct source for muscle contraction including myocardial contractions but also energize every cell in the body, especially the immune system under attack. The presence of de novo D-ribose not only enables ATP to be synthesized much faster, but its presence also serves to stimulate the salvage of these nucleotides. With this in mind, a curious thing has been observed. […] The only explanation for this is that the salvage of these nucleotides especially ATP is stimulated by forcibly spraying the ribose onto the tongue. This causes the stomach to send out less of the hormone ghrelin and a full feeling ensues with less food. If a person is ill, care must be taken not to spray ribose forcibly on the tongue by pump action or compressed gas, but rather have it be swallowed immediately or given parenterally.

SMILES strings stand for the structures.

Consider `O=C[C@H](O)[C@H](O)[C@H](O)CO` [D-ribose], for which the “time for synthesis of ATP” value in the experiment with ATP synthesis is at least 8 h. For the same compound, the “rate of healing of clean wounds” value in the experiment on clean wounds is reported as “will improve the rate of healing of clean wounds”. Also, the “rate of healing of infected wounds” value in the experiment with infected wounds is on record as “will improve the rate of healing infected wounds”. Further, the effect on appetite entry in the experiment on appetite (aqueous solution sprayed forcibly by pump action on the tongue during a meal) is recorded as “causes the appetite to abate in many people”; with appetite (ribose swallowed), “far less such effect”.

These data come from patent US20030045482A1, “Using D-ribose with or without anti-microbial agents to enhance healing and subsequent recovery by both synthesizing and sparing NAD derivatives” (priority 2000, published 2003).
